From ChEMBL document CHEMBL4265900, “Discovery of the bifunctional modulator of angiotensin II type 1 receptor (AT1R) and PPARγ derived from the AT1R antagonist, Fimasartan” (Bioorg Med Chem Lett, 2018)

Tests used:
[1] = target: T1, Type-1 angiotensin II receptor (Homo sapiens, UniProt P30556); assay: Antagonist activity at type-1 angiotensin 2 receptor (unknown origin) by calcium mobilizing assay; format: functional
T1 sequence (P30556 whole entry): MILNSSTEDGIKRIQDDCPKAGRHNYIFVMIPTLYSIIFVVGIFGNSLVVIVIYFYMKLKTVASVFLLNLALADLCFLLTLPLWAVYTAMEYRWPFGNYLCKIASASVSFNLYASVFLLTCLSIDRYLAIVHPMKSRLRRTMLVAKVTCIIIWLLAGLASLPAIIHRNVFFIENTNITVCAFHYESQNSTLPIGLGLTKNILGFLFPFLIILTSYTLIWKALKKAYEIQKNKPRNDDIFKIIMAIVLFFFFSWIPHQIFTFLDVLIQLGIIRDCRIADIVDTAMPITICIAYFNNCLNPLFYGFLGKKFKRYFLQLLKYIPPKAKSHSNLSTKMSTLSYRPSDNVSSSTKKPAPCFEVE

[2] = target: T2, Peroxisome proliferator-activated receptor gamma (Homo sapiens) (UniProt P37231); assay: Agonist activity at PPARgamma (unknown origin) at 1 uM relative to telmisartan
T2 sequence (whole entry): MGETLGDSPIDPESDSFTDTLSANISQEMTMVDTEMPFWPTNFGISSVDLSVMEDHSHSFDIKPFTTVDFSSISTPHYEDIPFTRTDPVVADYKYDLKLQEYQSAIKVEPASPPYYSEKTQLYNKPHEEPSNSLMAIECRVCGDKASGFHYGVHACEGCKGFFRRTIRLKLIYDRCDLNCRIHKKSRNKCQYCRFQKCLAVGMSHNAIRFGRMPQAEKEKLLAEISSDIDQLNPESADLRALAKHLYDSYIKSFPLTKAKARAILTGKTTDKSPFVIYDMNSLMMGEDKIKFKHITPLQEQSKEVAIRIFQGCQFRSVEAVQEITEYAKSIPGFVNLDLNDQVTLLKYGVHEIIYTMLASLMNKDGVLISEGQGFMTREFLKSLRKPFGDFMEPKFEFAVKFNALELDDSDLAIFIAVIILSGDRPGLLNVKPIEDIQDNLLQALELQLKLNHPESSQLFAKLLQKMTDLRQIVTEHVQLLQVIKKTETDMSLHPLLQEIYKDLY

[3] = target: T3, Type-1 angiotensin II receptor (Homo sapiens) (UniProt P30556); assay: Antagonist activity at type-1 angiotensin 2 receptor (unknown origin) at 20 nM by calcium mobilizing assay relative to fimasartan; format: functional
T3 sequence (whole entry): T1 sequence (P30556 whole entry)

SMILES	IC50 [1] [nM]	Activity [2] [%]	inhibition [3] [%]
CCCCc1nc(C)c(CC(=S)N2CCCCC2)c(=O)n1Cc1ccc(-c2ccccc2-c2noc(=O)[nH]2)cc1	38	116	–
CCCCc1nc(C)c(CC(=S)N(C)C(C)C)c(=O)n1Cc1ccc(-c2ccccc2-c2noc(=O)[nH]2)cc1	–	106	107
CCCCc1nc(C)c(CC(=S)N(C)C)c(=O)n1Cc1ccc(-c2ccccc2S(N)(=O)=O)cc1	–	–	11
CCCCc1nc(C)c(CC(=S)N2CCCC2)c(=O)n1Cc1ccc(-c2ccccc2-c2noc(=O)[nH]2)cc1	0.7	105	–
CCCCc1nc(C)c(CC(=S)N2CC[C@@H]3CCCC[C@H]32)c(=O)n1Cc1ccc(-c2ccccc2-c2noc(=O)[nH]2)cc1	70	121	–
CCCCc1nc(C)c(CC(=S)N2Cc3ccccc3C2)c(=O)n1Cc1ccc(-c2ccccc2-c2noc(=O)[nH]2)cc1	32	100	–
CCCCc1nc(C)c(CC(=S)N(CC)CC)c(=O)n1Cc1ccc(-c2ccccc2-c2noc(=O)[nH]2)cc1	2	61	–
CCCCc1nc(C)c(CC(=S)N(C)C)c(=O)n1Cc1ccc(-c2ccccc2-c2noc(=O)[nH]2)cc1	1.6	120	–
Cc1nc(C2CC2)n(Cc2ccc(-c3ccccc3-c3noc(=O)[nH]3)cc2)c(=O)c1CC(=S)N(C)C	–	–	9.5
CCCCc1nc(C)c(CC(=S)N(C)CC(C)C)c(=O)n1Cc1ccc(-c2ccccc2-c2noc(=O)[nH]2)cc1	2.1	122	–
